Columns and labels:
[1] = tested on: E.coli; format: cell-based
Description: (§1) Bacterial resistance assay. Commercial available Acticoat® dressing from Smith & Nephew was used to study the development of bacterial resistance against Ag. Acticoat® (1 cm^2 area) was placed in water (1 mL) and kept at room temperature for 24 h in order to promote leaching of Ag ions. ICP-MS analysis of leached solution was done to quantify the amount of Ag ions. The leached Acticoat® solution (Ag^+,0.06 ug/mL; sub-minimum inhibitory concentration, sub-MIC) was used to incubate with E.coli or S.aureus suspensions (10^5 CFU/mL) for 20 h in 10% human serum (HS; v/v in PBS). Then, for antimicrobial test, 10^5 CFU/mL of bacteria from passage 1 were incubated with 0.1 ug/mL (minimum inhibitory concentration, MIC) of Acticoat® solution in 10% human serum (HS) for 6 h followed by serial dilution and plating. Plates were incubated at 37° C. for 24 h. The visible bacteria grown on plates were counted. […]
(§2) Next, the inventors evaluated whether LL37NPs induced bacterial resistance (FIG. 5). […] Acticoat® dressing was incubated in PBS for 1, 3 and 5 days followed by the quantification of silver ions using ICP-MS analysis (FIG. 11C). […]
(§3) (A) Schematic diagram showing experimental procedures being used for bacterial resistance assay. […] ICP-MS analysis was performed to quantify the amount of Ag. […]

[2] = tested on: S.aureus; format: cell-based
Description: as §1, §2, §3

[3] = tested on: Human keratinocyte cell line (HaCaT); experiment: Biocompatibility: keratinocytes cultured on films, ATP (CellTiter-Glo) assay; format: cell-based; settings: 4 and 24 h; cells on films or with soluble peptide (20 µg/mL)
Description: Cell Culture. Human dermal fibroblast cells (NDHF) (Lonza) were cultured with Dulbecco’s modified eagle’s medium (DMEM) (Sigma) supplemented with 10% (v/v) of fetal bovine serum (Gibco, Grand Island, NY, USA) and 1% (v/v) penicillin/streptomycin (Lonza). NDHF cells under passage number ten were used in all experiments. Human keratinocyte cell line (HaCaT cell line, CLS, Eppelheim, Germany) was cultured as recommended by the vendor. Briefly, HaCaT cells were cultivated using DMEM supplemented with 1% (v/v) penicillin and streptomycin (Invitrogen) and 10% (v/v) fetal bovine serum (FBS, Invitrogen) until 90% of confluence. For passage, HaCat cells were initially trypsinized and then scraped. The cells were sub-cultured at a ratio of 1:3 until achieving the number of cells required for the experiment.
Biocompatibility study. Keratinocytes (2×10^4 cells) were cultured on top of PU-Adhesive-LL37NP, PU-Adhesive or PU films and cultured for 4 and 24 h. […] Cell viability was measured using ATP assay. […]
In vitro cytotoxicity of PU-adhesive-LL37NP films. […] To evaluate the cytotoxicity of films, keratinocytes were cultured on the top of PU-adhesive-LL37NP, PU-adhesive and PU films for 4 and 24 h and then cell viability was evaluated by an ATP assay (FIG. 12A). […]

[4] = tested on: P.aeruginosa

O=C(N[C@H](CO)[C@H](O)c1ccc([N+](=O)[O-])cc1)C(Cl)Cl [chloramphenicol]
time to induce resistance ([1]; serial passages at sub-MIC): ≤ 3 days
time to induce resistance ([2]; serial passages at sub-MIC): ≤ 3 days

CC[C@H](C)[C@H](NC(=O)[C@H](CCCCN)NC(=O)[C@H](CCC(=O)O)NC(=O)[C@H](CCCCN)NC(=O)[C@H](CO)NC(=O)[C@H](CCCCN)NC(=O)[C@H](CCCNC(=N)N)NC(=O)[C@H](Cc1ccccc1)NC(=O)[C@H](Cc1ccccc1)NC(=O)[C@H](CC(=O)O)NC(=O)CNC(=O)[C@H](CC(C)C)NC(=O)[C@@H](N)CC(C)C)C(=O)NCC(=O)N[C@@H](CCCCN)C(=O)N[C@@H](CCC(=O)O)C(=O)N[C@@H](Cc1ccccc1)C(=O)N[C@@H](CCCCN)C(=O)N[C@@H](CCCNC(=N)N)C(=O)N[C@H](C(=O)N[C@H](C(=O)N[C@@H](CCC(N)=O)C(=O)N[C@@H](CCCNC(=N)N)C(=O)N[C@H](C(=O)N[C@@H](CCCCN)C(=O)N[C@@H](CC(=O)O)C(=O)N[C@@H](Cc1ccccc1)C(=O)N[C@@H](CC(C)C)C(=O)N[C@@H](CCCNC(=N)N)C(=O)N[C@@H](CC(N)=O)C(=O)N[C@@H](CC(C)C)C(=O)N[C@H](C(=O)N1CCC[C@H]1C(=O)N[C@@H](CCCNC(=N)N)C(=O)N[C@H](C(=O)N[C@@H](CCC(=O)O)C(=O)N[C@@H](CO)C(=O)N[C@@H](CS)C(=O)O)[C@@H](C)O)C(C)C)[C@@H](C)CC)C(C)C)[C@@H](C)CC [LL37 peptide]
MIC ([1]; free peptide): up to 15 µg/mL
MIC ([2]; free peptide): up to 15 µg/mL
keratinocyte metabolism / cytotoxicity (ATP production) [3]: No statistic difference in keratinocyte metabolism
MIC [4]: up to 15 µg/mL

— patent US20230173135A1, “PROCESS TO COAT A MEDICAL DEVICE SURFACE WITH PEPTIDE-BASED NANOPARTICLES” (priority 2020, published 2023)
